For the assay, the system named is C57BL/6J mouse, age-related hearing loss model. As to the kind of experiment: ABR (auditory brainstem response) test in age-related hearing loss model mice after oral administration once a day. It counts as in vivo. Particulars: given as yeast extract powder.

In the case of `C[N+](C)(C)[C@@H](Cc1c[nH]c(=S)[nH]1)C(=O)[O-]` [ergothioneine, Ergothioneine], the “hearing loss suppression effect” value (Example 2, Tables 5 and 6, 24 and 32 kHz) was “confirmed at either frequency, but was particularly remarkable at 24 kHz”. The “progression of hearing loss” value (conclusion from the ABR results) is given as “delayed”.

Source of the values: patent publication US20250108037A1, “COMPOSITION CONTAINING ERGOTHIONEINE FOR SUPPRESSING OR PREVENTING INNER EAR HEARING LOSS” (MITSUBISHI GAS CHEMICAL COMPANY, INC., priority 2021, published 2025).
